Measured values published in patent US5900488A, “Method for treating mycosis using imidazolylacetonitrile derivatives” (Nihon Nohyaku Co., Ltd., priority 1995, dated 1999).
Values after ≈ are worked out from the molar mass of the structure shown. “Also recorded” adds a separate entry of the source. Like-named read-outs stand apart in the source and are kept apart here.

Tests used:
[1] = tested on: Trichophyton mentagrophytes; test: In vitro activity against Trichophyton mentagrophytes, MIC by twofold macro-broth dilution (Test Example 1); type: cell-based; conditions: for MIC: Trichophyton mentagrophytes, 7 days at 27° C.
Experimental: (§1) Minimum inhibitory concentrations (MICs) were determined by the twofold macro-broth dilution method with Sabouraud's glucose broth which constituted with 1% bactopeptone and 4% glucose. To each tube containing 9.8 ml of the broth, 0.1 ml of each testing compound dissolved in DMSO and 0.1 ml of a conidial suspension (1×10^6 conidia/ml) were added. The fungal growth was observed after incubation for 7 days at 27° C. The MIC was determined as the lowest drug concentration which prevented a visible fungal growth.

[2] = tested on: Aspergillus fumigatus; test: In vitro antifungal activity against Aspergillus fumigatus, MIC by twofold agar dilution (Test Example 4); type: cell-based; conditions: read-out: MIC
Experimental: MICs were determined by the twofold agar dilution method with casitone agar which constituted with 0.9% bactocasitone, 1% bacto-yeast extract, 2% glucose, 0.1% KH2 PO4, 0.1% Na2 HPO4, 1% Na3 C6 H5 O7 and 1.6% agar. A loopful of each inoculum (1×10^6 conidia/ml) was streaked onto the agar plate containing a compound, and a fungal growth was observed after incubation for 48 hours at 35° C. The MIC was determined as the lowest drug concentration which prevented a visible fungal growth.

[3] = tested on: Trichophyton rubrum; test: In vitro activity against Trichophyton rubrum, MIC by twofold macro-broth dilution (Test Example 1); type: cell-based
Experimental: as §1

[4] = tested on: trichophyton mentagrophytes TIMM 2789; test: Therapeutic efficacy on experimental tinea pedis in guinea pigs (Test Example 2); type: in vivo
Experimental: Male Hartley guinea pigs (Japan SLC Inc.) weighing 400 to 620 g were used for the infection study. One side of a paper disc (1.5 mm thick×8 mm diameter) was covered with a piece of aluminum foil while the other side was free to carry the inoculum suspension. The disc was immersed with 50 μl of the inoculum suspension (trichophyton mentagrophytes TIMM 2789, 1×10^8 conidia/ml), and was then fixed on the planta pedis of animal feet with an adhesive elastic tape. The disc was removed on the seventh day postinfection. Each agent dissolved in PEG 400 (0.1 ml/locus) was topically applied to the whole soles of guinea pigs once a day for 3 consecutive days, starting on the 10th day postinfection. Five days after the last treatment, the skin tissue from each planta pedis and the corresponding tarsus of all animals was cut into small blocks (about 2×2 mm). Ten skin blocks obtained from each part of the foot were implanted on a Sabouraud's glucose agar plate containing antibiotics, and were cultured at 27° C. for 14 days. The skin blocks yielding fungal growth were regarded as culture-positive, and the foot (planta pedis plus tarsus) with more than one culture-positive skin block was considered fungus-positive. In addition, the intensity of infection was assessed by the scores based on the number of culture-positive skin blocks. Namely, +10, +9, +8, +7, +6, +5, +4, +3, +2, +1 or 0 was given as the score according to the corresponding number of culture-positive skin blocks out of ten skin blocks studied. Statistical analyses for the rate of fungus-positive feet and the average intensity of infection were assessed by Fisher's exact probably test and Mann-Whitney's U-test, respectively.

[5] = tested on: Candida albicans; test: In vitro antifungal activity against Candida albicans, MIC by twofold micro-broth dilution (Test Example 3); type: cell-based; conditions: 48 hours at 35° C., pH 7.0, read-out: MIC
Experimental: MICs were determined by the twofold micro-broth dilution method with RPMI 1640 buffered with morphorino-propanesulfonic acid to a final molarity of 0.165M (pH 7.0). One hundred μl of a yeast cell suspension (1 to 5×10^3 cells/ml) and 100 μl of the compound-containing medium were pipetted into each well flat-bottomed microtiter plates. After incubation for 48 hours at 35° C., the turbidity of each well was measured at 630 nm.

[6] = tested on: dermatophytes; test: Antifungal activity against dermatophytes compared with racemic mixtures (general statement); conditions: especially highly sensitive strains
[7] = 0.5% in PEG 400, topical once a day for 3 days, p < 0.01 vs untreated and PEG 400 control
[8] = 1% in PEG 400, topical once a day for 3 days, p < 0.01 vs untreated and PEG 400, Compound (A) also p < 0.05 vs 1% Racemic Compound (A)
[9] = 1% in PEG 400, topical once a day for 3 days, p < 0.01 vs untreated and PEG 400 control

**Q.** Which “in vitro antifungal activity relative to Racemic Compound (A)” value ([1]; MIC for T. mentagrophytes TIMM 2789) does the source give for `N#C/C(=C1/SC[C@@H](c2ccccc2Cl)S1)n1ccnc1` [Compound (A), R-(+)-(E)-[4-(2-chlorophenyl)-1,3-dithiolan-2-ylidene]-1-imidazolylacetonitrile] here?
**A.** Its value is 4 times.

**Q.** What about the MIC ([1]; IFO5466, 168 h, strain IFO 5466) of the same molecule?
**A.** Its MIC is 20 ng/mL (≈ 0.0625 µM).

**Q.** And the MIC ([1]; IFO5809, 168 h, strain IFO 5809)?
**A.** Its MIC is 5 ng/mL (≈ 0.0156 µM).

**Q.** What about the MIC ([1]; IFO5810, 168 h, strain IFO 5810) of the same molecule?
**A.** Its MIC is 5 ng/mL (≈ 0.0156 µM).

**Q.** And the MIC ([1]; IFO5811, 168 h, strain IFO 5811)?
**A.** Its MIC is 20 ng/mL (≈ 0.0625 µM).

**Q.** And the MIC ([1]; IFO5929, 168 h, strain IFO 5929)?
**A.** Its MIC is 10 ng/mL (≈ 0.0313 µM).

**Q.** And the MIC ([1]; TIMM1189, 168 h, strain TIMM 1189)?
**A.** Its MIC is 10 ng/mL (≈ 0.0313 µM).

**Q.** What about the MIC ([1]; TIMM1814, 168 h, strain TIMM 1814) of the same molecule?
**A.** Its MIC is 20 ng/mL (≈ 0.0625 µM).

**Q.** And the MIC ([1]; TIMM1815, 168 h, strain TIMM 1815)?
**A.** Its MIC is 20 ng/mL (≈ 0.0625 µM).

**Q.** And the MIC ([1]; TIMM1817, 168 h, strain TIMM 1817)?
**A.** Its MIC is 20 ng/mL (≈ 0.0625 µM).

**Q.** What about the MIC ([1]; TIMM2789, 168 h, strain TIMM 2789) of the same molecule?
**A.** The MIC was 5 ng/mL (≈ 0.0156 µM).

**Q.** What about the MIC ([2]; TIMM0063, strain TIMM 0063, 48 hours at 35° C.) of the same molecule?
**A.** Its MIC is 0.63 ng/mL (≈ 0.00197 µM).

**Q.** What about the MIC ([2]; TIMM0078, strain TIMM 0078, 48 hours at 35° C.) of the same molecule?
**A.** The MIC was 0.63 ng/mL (≈ 0.00197 µM).

**Q.** What about the MIC ([2]; TIMM1728, strain TIMM 1728, 48 hours at 35° C.) of the same molecule?
**A.** Its MIC is 1.3 ng/mL (≈ 0.00406 µM).

**Q.** And the MIC ([2]; TIMM1767, strain TIMM 1767, 48 hours at 35° C.)?
**A.** Its MIC is 1.3 ng/mL (≈ 0.00406 µM).

**Q.** And the “sensitivity (in words)” value [3]?
**A.** Its value is “highly sensitive”.

**Q.** What about the MIC ([3]; IFO5467, 168 h, strain IFO 5467, 7 days at 27° C.) of the same molecule?
**A.** The MIC was 1.3 ng/mL (≈ 0.00406 µM).

**Q.** What about the MIC ([3]; IFO5807, 168 h, strain IFO 5807, 7 days at 27° C.) of the same molecule?
**A.** Its MIC is 2.5 ng/mL (≈ 0.00782 µM).

**Q.** And the MIC ([3]; IFO5808, 168 h, strain IFO 5808, 7 days at 27° C.)?
**A.** The MIC was 2.5 ng/mL (≈ 0.00782 µM).

**Q.** What about the MIC ([3]; IFO6203, 168 h, strain IFO 6203, 7 days at 27° C.) of the same molecule?
**A.** The MIC was 2.5 ng/mL (≈ 0.00782 µM).

**Q.** What about the MIC ([3]; IFO6204, 168 h, strain IFO 6204, 7 days at 27° C.) of the same molecule?
**A.** The MIC was 2.5 ng/mL (≈ 0.00782 µM).

**Q.** And the MIC ([3]; IFO9185, 168 h, strain IFO 9185, 7 days at 27° C.)?
**A.** The MIC was 1.3 ng/mL (≈ 0.00406 µM).

**Q.** What about the MIC ([3]; TIMM1822, 168 h, strain TIMM 1822, 7 days at 27° C.) of the same molecule?
**A.** Its MIC is 1.3 ng/mL (≈ 0.00406 µM).

**Q.** What about the MIC ([3]; TIMM1823, 168 h, strain TIMM 1823, 7 days at 27° C.) of the same molecule?
**A.** Its MIC is 2.5 ng/mL (≈ 0.00782 µM).

**Q.** What about the MIC ([3]; TIMM1824, 168 h, strain TIMM 1824, 7 days at 27° C.) of the same molecule?
**A.** Its MIC is 1.3 ng/mL (≈ 0.00406 µM).

**Q.** And the MIC ([3]; TIMM1830, 168 h, strain TIMM 1830, 7 days at 27° C.)?
**A.** The MIC was 0.63 ng/mL (≈ 0.00197 µM).

**Q.** What about the “effect relative to 1% Racemic Compound (A)” value ([4]; 0.5% Compound (A) vs 1% Racemic Compound (A)) of the same molecule?
**A.** The value was “twice; also recorded: more than twice”.

**Q.** What about the “Average intensity of infection, planta pedis (score 0 to +10)” value [4, 7] of the same molecule?
**A.** Its value is “+0.3”.

**Q.** What about the “Average intensity of infection, tarsus (score 0 to +10)” value [4, 7] of the same molecule?
**A.** Its value is 0.

**Q.** What about the “Fungus-positive rate (%)” value [4, 7] of the same molecule?
**A.** Its value is 20%.

**Q.** What about the “Fungus-positive rate: The number of positive feet/The total number of feet” value [4, 7] of the same molecule?
**A.** Its value is 2/10.

**Q.** And the “Fungus-positive rate (%)” value [4, 8]?
**A.** Its value is 0%.

**Q.** What about the “Fungus-positive rate: The number of positive feet/The total number of feet” value [4, 8] of the same molecule?
**A.** The value was 0/10.

**Q.** And the “Average intensity of infection, planta pedis (score 0 to +10)” value [4, 9]?
**A.** Its value is 0.

**Q.** And the “Average intensity of infection, tarsus (score 0 to +10)” value [4, 9]?
**A.** Its value is 0.

**Q.** And the “curative effect (in words)” value ([4]; 1% treated group)?
**A.** The value was “mycologically complete healing”.

**Q.** What about the “curative effect compared with Racemic Compound (A)” value ([4]; at the same concentration) of the same molecule?
**A.** The value was “markedly higher”.

**Q.** And the MIC ([5]; IFO0197, strain IFO 0197, 80% inhibition)?
**A.** Its MIC is 62.5 ng/mL (≈ 0.195 µM).

**Q.** And the MIC ([5]; IFO0579, strain IFO 0579, 80% inhibition)?
**A.** The MIC was 31.3 ng/mL (≈ 0.0979 µM).

**Q.** And the MIC ([5]; IFO1269, strain IFO 1269, 80% inhibition)?
**A.** Its MIC is 62.5 ng/mL (≈ 0.195 µM).

**Q.** And the MIC ([5]; IFO1270, strain IFO 1270, 80% inhibition)?
**A.** The MIC was 250 ng/mL (≈ 0.782 µM).

**Q.** What about the MIC ([5]; IFO1385, strain IFO 1385, 80% inhibition) of the same molecule?
**A.** The MIC was 62.5 ng/mL (≈ 0.195 µM).

**Q.** And the MIC ([5]; IFO1386, strain IFO 1386, 80% inhibition)?
**A.** The MIC was 125 ng/mL (≈ 0.391 µM).

**Q.** What about the MIC ([5]; TIMM3163, strain TIMM 3163, 80% inhibition) of the same molecule?
**A.** The MIC was 4000 ng/mL (≈ 12.5 µM).

**Q.** And the MIC ([5]; TIMM3164, strain TIMM 3164, 80% inhibition)?
**A.** Its MIC is 250 ng/mL (≈ 0.782 µM).

**Q.** What about the MIC ([5]; TIMM3165, strain TIMM 3165, 80% inhibition) of the same molecule?
**A.** The MIC was 2000 ng/mL (≈ 6.25 µM).

**Q.** And the MIC ([5]; TIMM3166, strain TIMM 3166, 80% inhibition)?
**A.** Its MIC is 1000 ng/mL (≈ 3.13 µM).

**Q.** What about the “antifungal activity relative to the racemic mixtures” value [6] of the same molecule?
**A.** The value was “several times”.
